Test systems include HCC 2998; CCRF-CEM; U-251; NCI-H23; MDA-MB-435; CAKI-1; LOX IMVI; SK-MEL-28; BT-549; SNB-19; 786-0; KM12; T47D; SF-268; SW-620; DU-145; SF-295; Malme-3M; SNB-75.
Experiment in all cases: NCI anticancer screen, dose series, 48 h

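Method: 48-hour compound exposure of cells in 96-well plates, five concentrations, linear interpolation of endpoints. Abbreviation: GI50, concentration required for 50% inhibition of growth.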 The source made the active and inactive calls. Cut-off read from the data, not from the text of the source: active = GI50 up to about 1.1 µM and inactive = higher.

On to `CN(C)CCOc1ccc(-c2c(Oc3ccc(Cl)cc3)c(=O)oc3ccccc23)cc1`, for which the GI50 in the assay with HCC 2998 is 3.15 µM (inactive); in the assay on CCRF-CEM it was 4.41 µM (inactive); with U-251, 3.64 µM (inactive); in the assay on NCI-H23, 14.5 µM (inactive); in the assay with MDA-MB-435 it was 2.67 µM (inactive); with CAKI-1, 12.9 µM (inactive). Further, the GI50 in the assay with LOX IMVI was 6.98 µM (inactive); with SK-MEL-28, 3.27 µM (inactive); in the assay with BT-549, 15 µM (inactive); with SNB-19, 16.9 µM (inactive); with 786-0 it was 4.27 µM (inactive); in the assay on KM12 it was 9.57 µM (inactive). Also, the GI50 is 8.87 µM (inactive) in the assay on T47D; 8.69 µM (inactive) in the assay with SF-268; > 23.5 µM (inactive) in the assay with SW-620; 10.5 µM (inactive) in the assay with DU-145; 5.36 µM (inactive) with SF-295; 5.83 µM (inactive) with Malme-3M. In addition, the GI50 with SNB-75 is 6.56 µM (inactive).
On to `O=C1C(C(c2ccccc2)N2CCOCC2)=C(O)C(c2ccccc2)N1c1ccccc1` (stereo not given), for which the GI50 in the assay with HCC 2998, in the assay on CCRF-CEM, in the assay on U-251, in the assay with NCI-H23, in the assay on MDA-MB-435 and in the assay on CAKI-1 was > 10 µM (inactive) each time. Moreover, the GI50 in the assay on LOX IMVI, with SK-MEL-28, in the assay on BT-549, in the assay on SNB-19, in the assay with 786-0 and in the assay on KM12 was > 10 µM (inactive) in each case. Besides, the GI50 with T47D was > 10 µM (inactive); with SF-268 it was > 10 µM (inactive); in the assay with SW-620, > 10 µM (inactive); in the assay on DU-145 it was > 10 µM (inactive); in the assay on SF-295, > 10 µM (inactive); in the assay on Malme-3M, 3.05 µM (inactive). Moreover, the GI50 in the assay on SNB-75 is 3.58 µM (inactive).
Consider `Cc1cnccc1/N=N/c1ccc(N(C)C)cc1`, for which the GI50 with HCC 2998 was 13.5 µM (inactive); with CCRF-CEM, 37 µM (inactive); in the assay with U-251, 21.3 µM (inactive); with NCI-H23, 24.4 µM (inactive); in the assay with MDA-MB-435, 7.6 µM (inactive); in the assay with CAKI-1, 25.9 µM (inactive). In addition, the GI50 in the assay on LOX IMVI was 17.4 µM (inactive); in the assay with SK-MEL-28 it was 22.3 µM (inactive); in the assay on BT-549, 15.9 µM (inactive); in the assay with SNB-19 it was 40 µM (inactive); in the assay on 786-0, 42.2 µM (inactive); in the assay on KM12 it was 20.3 µM (inactive). The GI50 in the assay with T47D was 48.6 µM (inactive); in the assay with SF-268, 16.8 µM (inactive); with SW-620, 22.4 µM (inactive); in the assay on DU-145, 66.8 µM (inactive); with SF-295, 21.4 µM (inactive); in the assay with Malme-3M, 35.7 µM (inactive). The GI50 in the assay on SNB-75 was 14.5 µM (inactive).
Take `Cc1cc2oc(C)c(S(=O)(=O)NC(=O)Nc3ccc(Cl)cc3)c(=O)c2c(=O)o1`: the GI50 in the assay with HCC 2998, in the assay on CCRF-CEM, in the assay on U-251, in the assay on NCI-H23, in the assay with MDA-MB-435 and in the assay on CAKI-1 was > 100 µM (inactive) in each case. For the same molecule, the GI50 in the assay on LOX IMVI, in the assay on SK-MEL-28, in the assay with BT-549, in the assay with SNB-19, in the assay with 786-0 and in the assay on KM12 was > 100 µM (inactive) throughout. Also, the GI50 with T47D, in the assay on SF-268, in the assay with SW-620, in the assay with DU-145, with SF-295 and in the assay on Malme-3M was > 100 µM (inactive) throughout. Also, the GI50 with SNB-75 was > 100 µM (inactive).
As for `CCN(CC)C(=O)N[C@@H](Cc1ccccc1)C(=O)NC`, the GI50 in the assay on HCC 2998, with CCRF-CEM, in the assay with U-251, in the assay with NCI-H23, in the assay with MDA-MB-435 and in the assay with CAKI-1 was > 100 µM (inactive) each time. In addition, the GI50 with LOX IMVI, in the assay on SK-MEL-28, with BT-549, in the assay on SNB-19, in the assay with 786-0 and in the assay on KM12 was > 100 µM (inactive) throughout. In addition, the GI50 with T47D, in the assay on SF-268, in the assay on SW-620, in the assay on DU-145, in the assay on SF-295 and with Malme-3M was > 100 µM (inactive) in each case. In the assay with SNB-75, the GI50 was > 100 µM (inactive).
Take `CC(CC(=O)O)(CC(=O)O)c1ccccc1`: the GI50 with HCC 2998, in the assay with CCRF-CEM, in the assay on U-251, in the assay with NCI-H23, with MDA-MB-435 and with CAKI-1 was > 100 µM (inactive) throughout. The GI50 with LOX IMVI, in the assay with SK-MEL-28, in the assay on BT-549, in the assay on SNB-19, with 786-0 and in the assay with KM12 was > 100 µM (inactive) each time. The GI50 with T47D, in the assay with SF-268, with SW-620, with DU-145, in the assay on SF-295 and in the assay with Malme-3M was > 100 µM (inactive) in each case. Moreover, the GI50 with SNB-75 is > 100 µM (inactive).
Take `CCCCCC(=O)OCC1(CO)C/C(=C/CC(C(C)C)C(C)C)C(=O)O1` (stereo not given): the GI50 in the assay with HCC 2998 is 59.7 µM (inactive); in the assay with CCRF-CEM, 16.1 µM (inactive); in the assay with U-251, 44.4 µM (inactive); in the assay on NCI-H23 it was > 75 µM (inactive); with MDA-MB-435, 21.8 µM (inactive); in the assay on CAKI-1 it was 19.9 µM (inactive). Also, the GI50 in the assay on LOX IMVI is 10.6 µM (inactive); in the assay on SK-MEL-28, > 75 µM (inactive); in the assay with BT-549 it was > 75 µM (inactive); with SNB-19 it was 63.1 µM (inactive); with 786-0, 30.8 µM (inactive); in the assay on KM12 it was 13.5 µM (inactive). Further, the GI50 in the assay with T47D was 52.6 µM (inactive); in the assay on SF-268, > 75 µM (inactive); with SW-620, 25.2 µM (inactive); in the assay with DU-145 it was 59.6 µM (inactive); in the assay with SF-295 it was 51.1 µM (inactive); in the assay with Malme-3M it was 24.3 µM (inactive). Besides, in the assay with SNB-75, the GI50 was 74 µM (inactive).
Turning to `N=c1oc2ccc(Cl)cc2cc1C(=O)NCc1ccccc1`, the GI50 is > 100 µM (inactive) in the assay with HCC 2998; 21.5 µM (inactive) with CCRF-CEM; > 86.3 µM (inactive) in the assay with U-251; > 100 µM (inactive) in the assay with NCI-H23; 78.3 µM (inactive) in the assay with MDA-MB-435; > 100 µM (inactive) in the assay with CAKI-1. For the same molecule, the GI50 in the assay on LOX IMVI is > 100 µM (inactive); in the assay on SK-MEL-28, > 100 µM (inactive); in the assay with BT-549, 23.7 µM (inactive); in the assay on SNB-19, > 100 µM (inactive); in the assay with 786-0, > 100 µM (inactive); with KM12 it was 43.4 µM (inactive). Besides, the GI50 is 39 µM (inactive) in the assay with T47D; > 100 µM (inactive) in the assay with SF-268; > 100 µM (inactive) in the assay on SW-620; > 100 µM (inactive) in the assay on DU-145; > 100 µM (inactive) in the assay on SF-295; 18.4 µM (inactive) in the assay with Malme-3M. In the assay with SNB-75, the GI50 is 22.4 µM (inactive).
As for `O=C1/C(=C/c2cccnc2)C(n2cccc2)c2c(Br)sc(Br)c21` (stereo not given), the GI50 in the assay on HCC 2998 is 0.916 µM (active); with CCRF-CEM it was 1.93 µM (inactive); in the assay on U-251, 1.7 µM (inactive); in the assay with NCI-H23, 2.52 µM (inactive); with MDA-MB-435, 1.73 µM (inactive); in the assay on CAKI-1, 2.59 µM (inactive). For the same molecule, the GI50 was 1.93 µM (inactive) with LOX IMVI; 2.53 µM (inactive) with SK-MEL-28; 9.57 µM (inactive) in the assay on BT-549; 4.7 µM (inactive) in the assay on SNB-19; 2.55 µM (inactive) in the assay on 786-0; 3.43 µM (inactive) in the assay with KM12. In addition, the GI50 in the assay with T47D is 2.82 µM (inactive); with SF-268 it was 2.13 µM (inactive); in the assay on SW-620, 2.32 µM (inactive); with DU-145 it was 1.94 µM (inactive); in the assay with SF-295, 15.2 µM (inactive); with Malme-3M, 3.01 µM (inactive). The GI50 in the assay on SNB-75 is 2 µM (inactive).
Regarding `CN(C)CCOc1ccc2c(c1)C/C(=C/c1ncc([N+](=O)[O-])n1C)C2=O`, the GI50 in the assay with HCC 2998 is 2.03 µM (inactive); with CCRF-CEM, 2.7 µM (inactive); with U-251, 3.51 µM (inactive); in the assay with NCI-H23, 1 µM (active); with MDA-MB-435, 2.99 µM (inactive); in the assay on CAKI-1, 2.64 µM (inactive). Besides, the GI50 in the assay with LOX IMVI was 2.65 µM (inactive); in the assay on SK-MEL-28, 17.6 µM (inactive); in the assay on BT-549, 1.04 µM (active); in the assay on SNB-19 it was 3.39 µM (inactive); in the assay with 786-0, 1.82 µM (inactive); in the assay with KM12, 2.61 µM (inactive). Besides, the GI50 in the assay with T47D was 6.03 µM (inactive); in the assay with SF-268, 1.89 µM (inactive); in the assay with SW-620, 1.6 µM (inactive); in the assay with DU-145, 3.13 µM (inactive); in the assay with SF-295, 3.1 µM (inactive); in the assay on Malme-3M, 1.94 µM (inactive). In the assay with SNB-75, the GI50 was 2.28 µM (inactive).

These data come from ChEMBL document CHEMBL1201862, “PubChem BioAssay data set” (2004).
